Bridge positions count the residues as written; N and C are the ends. Peptide text beside a SMILES is read from it.

Test [1] deals with Melanin-concentrating hormone receptor 1 (Homo sapiens, UniProt Q99705).
Test [2] has as its target Melanin-concentrating hormone receptor 2 (Homo sapiens, UniProt Q969V1).

Sequence of Melanin-concentrating hormone receptor 2 (Q969V1 whole entry): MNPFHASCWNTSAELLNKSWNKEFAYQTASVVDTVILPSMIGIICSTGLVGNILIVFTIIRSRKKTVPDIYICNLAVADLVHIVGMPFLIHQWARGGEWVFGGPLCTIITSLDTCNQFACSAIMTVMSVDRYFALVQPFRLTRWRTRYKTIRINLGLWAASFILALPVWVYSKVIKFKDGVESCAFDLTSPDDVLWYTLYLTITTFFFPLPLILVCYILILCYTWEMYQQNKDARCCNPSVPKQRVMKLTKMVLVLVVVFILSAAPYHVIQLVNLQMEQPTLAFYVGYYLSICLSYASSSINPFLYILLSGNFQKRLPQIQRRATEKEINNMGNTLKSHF
Sequence of Melanin-concentrating hormone receptor 1 (Q99705 as listed by the source): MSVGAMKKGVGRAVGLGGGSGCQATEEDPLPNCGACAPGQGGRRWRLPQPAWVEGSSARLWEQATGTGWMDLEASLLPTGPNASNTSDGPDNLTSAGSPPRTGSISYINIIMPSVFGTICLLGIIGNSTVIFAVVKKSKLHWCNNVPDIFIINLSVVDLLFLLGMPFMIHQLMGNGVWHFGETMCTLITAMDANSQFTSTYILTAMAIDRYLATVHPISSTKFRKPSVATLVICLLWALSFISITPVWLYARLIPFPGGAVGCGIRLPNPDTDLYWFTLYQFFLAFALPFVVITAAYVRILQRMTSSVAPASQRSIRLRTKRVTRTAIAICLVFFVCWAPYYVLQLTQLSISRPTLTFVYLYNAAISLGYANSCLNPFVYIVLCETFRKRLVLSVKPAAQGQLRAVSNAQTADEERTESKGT

In the case of `CSCC[C@@H]1NC(=O)[C@@H](NC(=O)[C@H](CCCNC(=N)N)NC(=O)[C@H](CCSC)NC(=O)[C@@H](NC(=O)[C@@H](N)CC(=O)O)[C@@H](C)O)CSSC[C@@H](C(=O)N[C@@H](Cc2c[nH]c3ccccc23)C(=O)N[C@@H](CCC(=O)O)C(=O)N[C@H](C(=O)O)C(C)C)NC(=O)[C@@H]2CCCN2C(=O)[C@H](CCCNC(=N)N)NC(=O)[C@H](Cc2ccc(O)cc2)NC(=O)[C@H](C(C)C)NC(=O)[C@H](CCCNC(=N)N)NC(=O)CNC(=O)[C@H](C(C)C)NC1=O` [Salmon MCH] (H-DTMRCMVGRVYRPCWEV-OH; disulfide 5-14), the Ki (usually the equilibrium dissociation constant of an inhibitor or competing ligand from its target) in test [1] amounted to 0.2 nM; in test [2], 437 nM.

In turn, `CSCC[C@@H]1NC(=O)[C@@H](NC(=O)[C@H](CCCNC(=N)N)NC(=O)[C@H](CC(C)C)NC(=O)[C@H](CCSC)NC(=O)[C@H](CC(=O)O)NC(=O)[C@H](Cc2ccccc2)NC(=O)[C@@H](N)CC(=O)O)CSSC[C@@H](C(=O)N[C@@H](Cc2c[nH]c3ccccc23)C(=O)N[C@@H](CCC(N)=O)C(=O)N[C@H](C(=O)O)C(C)C)NC(=O)[C@@H]2CCCN2C(=O)[C@H](CCCNC(=N)N)NC(=O)[C@H](Cc2ccc(O)cc2)NC(=O)[C@H](C(C)C)NC(=O)[C@H](CCCNC(=N)N)NC(=O)CNC(=O)[C@H](CC(C)C)NC1=O` [hMCH] yielded a Ki in test [2] of 1.5 nM.

The record behind these values is BindingDB's records for doi:10.1073/pnas.121170598 (Merck Research Laboratories, 2001).
